Patent US20060223073A1, “Methods of using a DNase I-like enzyme” (priority 2005, published 2006)

Target: bovine pancreatic DNase I (Bos taurus, UniProt P00639)
Details: for reduction of enzyme activity induced by the addition of salt: 100 mM sodium chloride added to reaction with 40% (v/v) alcohol (FIG. 2); for DNase I activity, % of Standard conditions: alcohol at 40% (v/v) in the Standard reaction, without sodium chloride (FIG. 2)
Protocol: The enzymatic hydrolysis of calf thymus genomic DNA was assayed using a method modified from that described by Desai and Shankar (Eur. J. Biochem., 2000; 267: 5123-5135). The standard reaction mixture was 0.1 mL volume, containing 30 μg of sonicated native calf thymus genomic DNA (Sigma, St. Louis Mo., #D-3664), in a buffer solution composed of 100 mM Tris HCl(pH 8.0)/10 mM MgSO4/1 mM CaCl2, with appropriately diluted DNase I (usually 0.02-1.0 Enzyme Units, as defined below). The reaction was initiated by the addition of enzyme, with incubation at room temperature for a defined period of time (usually 10-20 minutes), after which the reaction was terminated by rapid sequential addition of 0.1 mL of 1 mg/mL Bovine Serum Albumin (Sigma, #A3803) and 1.0 mL of ice cold 2% (v/v) Perchloric Acid. The terminated reaction mixture was vortex mixed, then chilled on ice for 20-30 minutes, follwed by centrifugation at 16,000×g for 10 minutes at 4 degrees centrigrade. The clarified supernatant contains acid-soluble oligonucleotides liberated by the action of DNase I-like activity, at concentrations determined using absorbance measurements determined in a 1 cm pathlength cell in the Agilent 8453 spectrophotometer (Agilent Technologies, Wilmington Del.). A molar extinction coefficient of 10,000 M^−1cm^−1 was employed for oligonucleotide concentration estimation in the acidic solution. Unit activity under these assay conditions is defined as umol of acid-soluble oligonucleotides generated per minute at 25 degrees centigrade. In the experiments shown in the examples that follow, bovine pancreatic DNase I is employed to illustrate the effects of various manipulations on the activity of this enzyme. Typically, the reaction employs approximately 0.1 enzyme units, as defined by the Kunitz assay, as discussed above (see Kunitz. J. Gen. Physiol. 1950; 33:349-362).
Bovine pancreatic DNase I (Fermentas, #EN0523) was assayed for gDNA hydrolytic activity, as described above, using the Standard reaction conditions, but modified by the inclusion of various quantities of iso-propanol (i-propanol, 2-propanol), with or without the further inclusion of sodium chloride at 100 mM.

bovine pancreatic DNase I, sequence (P00639 23-282): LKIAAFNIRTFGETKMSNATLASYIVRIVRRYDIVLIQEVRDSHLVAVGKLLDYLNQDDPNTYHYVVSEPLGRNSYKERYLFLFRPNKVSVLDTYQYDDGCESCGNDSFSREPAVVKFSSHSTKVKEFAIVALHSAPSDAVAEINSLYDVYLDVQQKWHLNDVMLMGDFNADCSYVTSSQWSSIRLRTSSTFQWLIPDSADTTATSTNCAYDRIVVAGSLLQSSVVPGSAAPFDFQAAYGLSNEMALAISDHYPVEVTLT

Row | Molecule | reduction of enzyme activity induced by the addition of salt | DNase I activity, % of Standard conditions | DNase I activity, % of the Standard activity level (20% i-propanol added to solution containing 100 mM sodium chloride (FIG. 1)) | DNase I activity relative to standard conditions (20% i-propanol, no sodium chloride, room temperature (FIG. 1)) | DNase I enzyme activity observed (high salt (100 mM sodium chloride) and high alcohol content (FIG. 1)) | DNase I activity, % of the standard condition (higher concentrations of i-propanol (above 20%, up to and above 80%), no sodium chloride (FIG. 1)) | DNase I activity, % of Standard reaction conditions (alcohol at 40% (v/v) plus 100 mM sodium chloride (FIG. 2))
1 | CCO [Ethanol] | three-fold reduction | 40% | – | – | – | – | –
2 | CC(C)O [i-propanol, iso-propanol] | least prevented the inhibition of the enzyme by salt | 40% | 101% | more than doubling the activity | greater than 50% | about 50% | –
3 | n-propanol | – | about 10% | – | – | – | – | less than 5%
